Laboratory results reported in patent US9676997B2, “Compositions and methods for stabilizing luminogenic substrates” (Promega Corporation, priority 2014, dated 2017).

Tests used:
[1] = Stability of 1.25 mM coelenterazine-h-h in 50% ethanol and 50% propylene glycol with or without 225 mM ATT, HPLC and Arrhenius plots; type: physicochemical
Method: The stability of coelenterazine-h-h in the presence and absence of ATT was measured over time at different temperatures. Specifically, 1.25 mM coelenterazine-h-h was present in a solution of 50% ethanol and 50% propylene glycol (i.e., the solution without ATT) or a solution of 50% ethanol and 50% propylene glycol with 225 mM ATT (i.e., the solution with ATT). These two solutions were incubated at −20° C., room temperature (RT), 40° C., or 60° C. and analyzed at 0 days, 1 day, 3 days, 7 days, 15 days, and 30 days.
Following incubation, high performance liquid chromatography (HPLC) was utilized to identify the components of the respective solutions at each time point. Specifically, an Agilent 1100 HPLC instrument was used and equipped with a quaternary pump, thermostatted autosampler and column compartment, and a G1311B diode-array detector. The column used was a Synergi-MAX-RP (Phenomenex, Torrance, Calif.) 100 AÅ 50×4.6 2.5 μm. The run on the HPLC was a gradient run with 0.1% TFA in water and acetonitrile. Absorbance was measured at 262 nanometers (nm). Standards of coelenterazine-h-h and its known degradants were run to confirm both the retention time and absorbance trace. 5 μl of each solution was injected and the retention time of coelenterazine-h-h at room temperature was 5.5 minutes.
(§1) The results of the HPLC analysis are shown below in Tables 7 and 8 and FIGS. 3A and 3B, in which the values are reported as relative peak area percentage at 262 nm (i.e., the lamba max of the substrate). […] In each of FIGS. 3A and 3B, diamond is 1.25 mM coelenterazine-h-h incubated over time with or without 225 mM ATT, respectively, at −20° C., triangle is 1.25 mM coelenterazine-h-h incubated over time with or without 225 mM ATT, respectively, at room temperature (RT), star is 1.25 mM coelenterazine-h-h incubated over time with or without 225 mM ATT, respectively, at 40° C., and cross is 1.25 mM coelenterazine-h-h incubated over time with or without 225 mM ATT, respectively, at 60° C.
From the HPLC analysis, the half-life of coelenterazine-h-h in the presence of ATT at 60° C. was calculated to be 10 days while the half-life of coelenterazine-h-h in the absence of ATT at 40° C. and 60° C. was calculated to be 27 days and 8 days, respectively (see Table 9 below).
Additionally, Arrhenius plots were generated for coelenterazine-h-h in the presence and absence of ATT to calculate the half-life of coelenterazine-h-h at various temperatures. The Arrhenius equation is as follows: […]
In FIG. 11, the slope was −10740.9, the intercept was 30.0575, and R^2 was 0.9967.
In FIG. 12, the […], and R^2 was 0.9648.

[2] = Stability of 1.25 mM coelenterazine-h in 50% ethanol and 50% propylene glycol with or without 225 mM ATT, HPLC and Arrhenius plots; type: physicochemical
Method: The stability of coelenterazine-h in the presence and absence of ATT was measured over time at different temperatures. Specifically, 1.25 mM coelenterazine-h was present in a solution of 50% ethanol and 50% propylene glycol (i.e., the solution without ATT) or a solution of 50% ethanol and 50% propylene glycol with 225 mM ATT (i.e., the solution with ATT). These two solutions were incubated at −20° C., room temperature (RT), 40° C., or 60° C. and analyzed at for 0 days, 1 day, 3 days, 7 days, 15 days, and 30 days.
Following incubation, high performance liquid chromatography (HPLC) was utilized to identify the components of the respective solutions at each time point. Specifically, an Agilent 1100 HPLC instrument was used and equipped with a quaternary pump, thermostatted autosampler and column compartment, and a G1311B diode-array detector. The column used was a Synergi-MAX-RP (Phenomenex, Torrance, Calif.) 100 AÅ 50×4.6 2.5 μm. The run on the HPLC was a gradient run with 0.1% TFA in water and acetonitrile. Absorbance was measured at 262 nanometers (nm). Standards of coelenterazine-h and its known degradants were run to confirm both the retention time and absorbance trace. 5 μl of each solution was injected and the retention time of coelenterazine-h was 4.7 minutes at room temperature.
as §1, with “4” for “7”, “5” for “8”, “2A” for “3A”, “2B,” for “3B,”, “coelenterazine-h” for “coelenterazine-h-h”
From the HPLC analysis, the half-life of coelenterazine-h in the presence of ATT at 40° C. and 60° C. was calculated to be 20 days and 5 days, respectively, while the half-life of coelenterazine-h in the absence of ATT at 20° C., 40° C. and 60° C. was calculated to be 24 days, 7.5 days and 2 days, respectively (see Table 6 below).
Additionally, Arrhenius plots were generated for coelenterazine-h in the presence and absence of ATT to calculate the half-life of coelenterazine-h at various temperatures. The Arrhenius equation is as follows: […]
In FIG. 9, the slope was −8131.2, the intercept was 22.6157, and R^2 was 0.9994.
In FIG. 10, the slope was −7310.53, the intercept was 21.4386, and R^2 was 0.9964.

[3] = decomposition of coelenterazine-h-h
[4] = solution in 50% ethanol and 50% propylene glycol, 40° C., read-out: T1/2 Calculated from Arrhenius (converted)
[5] = solution of 50% ethanol and 50% propylene glycol, 40° C., read-out: T1/2 Estimated from graph (converted)
[6] = solution of 50% ethanol and 50% propylene glycol, 60° C., read-out: T1/2 Estimated from graph (converted)
[7] = decomposition of coelenterazine-h

SMILES: O=c1c(Cc2ccccc2)nc2c(Cc3ccccc3)[nH]c(-c3ccccc3)cn1-2 [Coelenterazine-h-h (1193-25-1), coelenterazine-h-h]
- relative peak area percentage at 262 nm ([1]; 40° C., 0 days): 98.7%
- relative peak area percentage at 262 nm ([1]; 40° C., 1 day): 98.0%
- relative peak area percentage at 262 nm ([1]; 40° C., 3 days): 95.1%
- relative peak area percentage at 262 nm ([1]; 40° C., 7 days): 89.1%
- relative peak area percentage at 262 nm ([1]; 40° C., 15 days): 74.9%
- relative peak area percentage at 262 nm ([1]; 40° C., 30 days): 46.0%
- relative peak area percentage at 262 nm ([1]; 60° C., 0 days): 98.7%
- relative peak area percentage at 262 nm ([1]; 60° C., 1 day): 94.3%
- relative peak area percentage at 262 nm ([1]; 60° C., 3 days): 80.0%
- relative peak area percentage at 262 nm ([1]; 60° C., 7 days): 59.1%
- relative peak area percentage at 262 nm ([1]; 60° C., 15 days): 0.2%
- relative peak area percentage at 262 nm ([1]; RT, 0 days): 98.7%
- relative peak area percentage at 262 nm ([1]; RT, 1 day): 98.2%
- relative peak area percentage at 262 nm ([1]; RT, 3 days): 97.5%
- relative peak area percentage at 262 nm ([1]; RT, 7 days): 94.4%
- relative peak area percentage at 262 nm ([1]; RT, 15 days): 86.6%
- relative peak area percentage at 262 nm ([1]; RT, 30 days): 85.7%
- Arrhenius plot intercept [1, 3]: 30.8352
- Arrhenius plot slope [1, 3]: −10650.1
- half-life at 1.25 mM ([1]; solution in 50% ethanol and 50% propylene glycol, 20° C., read-out: T1/2 Calculated from Arrhenius (converted)): 172 days
- half-life at 1.25 mM [1, 4]: 16.9 days
- half-life at 1.25 mM ([1]; solution in 50% ethanol and 50% propylene glycol, 60° C., read-out: T1/2 Calculated from Arrhenius (converted)): 2.2 days
- half-life at 1.25 mM [1, 5]: 27 days
- half-life at 1.25 mM [1, 6]: 8 days
- relative peak area percentage at 262 nm ([1]; −20° C., 0 days): 98.7%
- relative peak area percentage at 262 nm ([1]; −20° C., 1 day): 98.6%
- relative peak area percentage at 262 nm ([1]; −20° C., 3 days): 98.2%
- relative peak area percentage at 262 nm ([1]; −20° C., 7 days): 98.4%
- relative peak area percentage at 262 nm ([1]; −20° C., 15 days): 97.9%
- relative peak area percentage at 262 nm ([1]; −20° C., 30 days): 98.5%

SMILES: O=c1c(Cc2ccccc2)nc2c(Cc3ccccc3)[nH]c(-c3ccc(O)cc3)cn1-2 [Coelenterazine-h (15-957-39), coelenterazine-h]
- relative peak area percentage at 262 nm ([2]; 40° C., 0 days): 95.5%
- relative peak area percentage at 262 nm ([2]; 40° C., 1 day): 84.3%
- relative peak area percentage at 262 nm ([2]; 40° C., 3 days): 71.5%
- relative peak area percentage at 262 nm ([2]; 40° C., 7 days): 54.2%
- relative peak area percentage at 262 nm ([2]; 40° C., 15 days): 26.7%
- relative peak area percentage at 262 nm ([2]; 40° C., 30 days): 1.6%
- relative peak area percentage at 262 nm ([2]; 60° C., 0 days): 95.5%
- relative peak area percentage at 262 nm ([2]; 60° C., 1 day): 63.6%
- relative peak area percentage at 262 nm ([2]; 60° C., 3 days): 32.3%
- relative peak area percentage at 262 nm ([2]; 60° C., 7 days): 1.2%
- relative peak area percentage at 262 nm ([2]; RT, 0 days): 95.5%
- relative peak area percentage at 262 nm ([2]; RT, 1 day): 92.9%
- relative peak area percentage at 262 nm ([2]; RT, 3 days): 88.1%
- relative peak area percentage at 262 nm ([2]; RT, 7 days): 80.7%
- relative peak area percentage at 262 nm ([2]; RT, 15 days): 66.7%
- relative peak area percentage at 262 nm ([2]; RT, 30 days): 36.6%
- Arrhenius plot intercept [2, 7]: 21.4386
- Arrhenius plot slope [2, 7]: −7310.53
- half-life at 1.25 mM [2, 4]: 4.7 days
- half-life at 1.25 mM ([2]; solution of 50% ethanol and 50% propylene glycol, 20° C., read-out: T1/2 Calculated from Arrhenius (converted)): 23.2 days
- half-life at 1.25 mM ([2]; solution of 50% ethanol and 50% propylene glycol, 20° C., read-out: T1/2 Estimated from graph (converted)): 24 days
- half-life at 1.25 mM [2, 5]: 7.5 days
- half-life at 1.25 mM ([2]; solution of 50% ethanol and 50% propylene glycol, 60° C., read-out: T1/2 Calculated from Arrhenius (converted)): 1.2 days
- half-life at 1.25 mM [2, 6]: 2 days
- half-life at 1.25 mM ([2]; solution of 50% ethanol and 50% propylene glycol, −20° C., read-out: T1/2 Calculated from Arrhenius (converted)): 1210 days
- relative peak area percentage at 262 nm ([2]; −20° C., 0 days): 95.5%
- relative peak area percentage at 262 nm ([2]; −20° C., 1 day): 95.4%
- relative peak area percentage at 262 nm ([2]; −20° C., 3 days): 95.0%
- relative peak area percentage at 262 nm ([2]; −20° C., 7 days): 95.0%
- relative peak area percentage at 262 nm ([2]; −20° C., 15 days): 94.6%
- relative peak area percentage at 262 nm ([2]; −20° C., 30 days): 88.8%
